These are literature values, as cited in patent publication US10576041B2, “Extended relief dosage form” (The Procter & Gamble Company, priority 2016, dated 2020).

SMILES strings stand for the structures. Counter-ions that a name gives are not always drawn.

The conditions of this data set: immediate release; in the human body.

Take `COc1ccc2c(c1)[C@]13CCCC[C@@H]1[C@H](C2)N(C)CC3` [dextromethorphan hydrobromide]: the half-life is 3 to 5 h.

With `CN[C@@H](C)[C@@H](O)c1ccccc1` [pseudoephedrine hydrochloride], the half-life is 4.3 to 8 h.

In general, half-life refers to how long it takes for the measured level to halve.
